According to ChEMBL document CHEMBL5104094, “Chemistry, biosynthesis and biological activity of terpenoids and meroterpenoids in bacteria and fungi isolated from different marine habitats” (Eur J Med Chem, 2021):
≈ marks a conversion by molar mass, not a printed value.

Assays:
[1] = tested on: HL-60; assay: Cytotoxicity against human HL-60 cells assessed as cell growth inhibition; format: functional, cell-based
[2] = tested on: Bel-7402; assay: Cytotoxicity against human Bel-7402 cells assessed as cell growth inhibition; format: functional, cell-based
[3] = molecular target: Phosphotyrosine-protein phosphatase PTPB (Mycobacterium tuberculosis, UniProt P96830); assay: Inhibition of N-terminal His6-tagged full-length Mycobacterium tuberculosis H37Rv PTPB expressed in Escherichia coli BL21 (DH3) using fluorogenic phosphatase substrate by fluorescence based assay
[4] = Suppression of spontaneous calcium oscillation amplitude in 4-AP-induced C57Bl/6J mouse primary neocortical neuron incubated for 25 mins by Fluo-4 dye based assay; format: functional, cell-based
[5] = Suppression of spontaneous calcium oscillation amplitude in C57Bl/6J mouse primary neocortical neuron incubated for 15 mins by Fluo-4 dye based assay; format: functional, cell-based; conditions: 0.25 h
[6] = Suppression of spontaneous calcium oscillation frequency in 4-AP-induced C57Bl/6J mouse primary neocortical neuron incubated for 25 mins by Fluo-4 dye based assay; format: functional, cell-based
[7] = Suppression of spontaneous calcium oscillation frequency in C57Bl/6J mouse primary neocortical neuron incubated for 15 mins by Fluo-4 dye based assay; format: functional, cell-based; conditions: 0.25 h
[8] = tested on: Ceratobasidium cornigerum; assay: Antimicrobial activity against Ceratobasidium cornigerum assessed as microbial growth inhibition; format: functional
[9] = tested on: Edwardsiella tarda; assay: Antimicrobial activity against Edwardsiella tarda assessed as microbial growth inhibition; format: functional
[10] = Hemolytic activity against human erythrocytes assessed as induction of cell lysis; format: toxicity, cell-based, Erythrocyte
[11] = tested on: Cryptococcus neoformans; assay: Antimicrobial activity against Cryptococcus neoformans assessed as microbial growth inhibition micro broth dilution assay; format: functional, organism-based
[12] = tested on: Candida albicans; assay: Antimicrobial activity against Candida albicans assessed as microbial growth inhibition micro broth dilution assay; format: functional, organism-based
[13] = tested on: Staphylococcus aureus; assay: Antimicrobial activity against Staphylococcus aureus assessed as microbial growth inhibition micro broth dilution assay; format: functional, organism-based
[14] = tested on: Candida parapsilosis; assay: Antimicrobial activity against Candida parapsilosis assessed as microbial growth inhibition micro broth dilution assay; format: functional, organism-based; conditions: Lodderomyces parapsilosis
[15] = tested on: Bacillus subtilis; assay: Antimicrobial activity against Bacillus subtilis assessed as microbial growth inhibition micro broth dilution assay; format: functional, organism-based
[16] = tested on: HL-60; assay: Cytotoxicity against human HL-60 cells assessed as cell growth inhibition by MTT assay; format: functional, cell-based
[17] = tested on: A549; assay: Cytotoxicity against human A549 cells assessed as cell growth inhibition by SRB assay; format: functional, cell-based
[18] = tested on: NCI-H460; assay: Cytotoxicity against human NCI-H460 cells assessed as cell growth inhibition incubated for 48 hrs by MTT assay; format: functional, cell-based; conditions: NCI-H460, 48 h
[19] = tested on: NCI-H460; assay: Induction of apoptosis in human NCI-H460 cells assessed as fold increase in […] at 35 uM incubated for 48 hrs by Annexin V-FITC/PI staining based flow cytometry; format: functional
[20] = tested on: MCF7; assay: Antitumor activity against human MCF7 cells xenografted in athymic nude BALB/c mouse assessed as tumor growth inhibition at 5 mg/kg, iv measured every 4 days for 40 days by caliper method relative to control; format: functional; conditions: MCF7, 960 h, time 40 day, read-out: TGI
[21] = tested on: MCF7; assay: Antitumor activity against human MCF7 cells xenografted in athymic nude BALB/c mouse assessed as tumor growth inhibition at 20 mg/kg, iv measured every 4 days for 40 days by caliper method relative to control; format: functional; conditions: MCF7, 960 h, time 40 day, read-out: TGI
[22] = tested on: MCF7; assay: Antitumor activity against human MCF7 cells xenografted in athymic nude BALB/c mouse assessed as tumor growth inhibition at 10 mg/kg, iv measured every 4 days for 40 days by caliper method relative to control; format: functional; conditions: MCF7, 960 h, time 40 day, read-out: TGI
[23] = tested on: MCF7; assay: Antitumor activity against Adriamycin-resistant human MCF7 cells xenografted in athymic nude BALB/c mouse assessed as tumor growth inhibition at 5 mg/kg, iv measured every 4 days for 40 days by caliper method relative to control; format: functional; conditions: MCF7, 960 h, time 40 day, read-out: TGI
[24] = tested on: MCF7; assay: Antitumor activity against human MCF7 cells xenografted in athymic nude BALB/c mouse assessed as tumor growth inhibition at 20 mg/kg, iv measured every 4 days for 40 days by caliper method relative to PTX; format: functional; conditions: MCF7, 960 h, time 40 day, read-out: TGI
[25] = tested on: MCF7; assay: Antitumor activity against Adriamycin-resistant human MCF7 cells xenografted in athymic nude BALB/c mouse assessed as tumor growth inhibition at 5 mg/kg, iv measured every 4 days for 40 days by caliper method in presence of Adriamycin relative to control; format: functional; conditions: MCF7, 960 h, time 40 day, read-out: TGI
[26] = tested on: NCI-H460; assay: Cytotoxicity against human NCI-H460 assessed as inhibition of cell viability incubated for 48 hrs by MTT assay; format: functional, cell-based; conditions: NCI-H460, 48 h
[27] = tested on: NCI-H446; assay: Cytotoxicity against human NCI-H446 assessed as inhibition of cell viability incubated for 48 hrs by MTT assay; format: functional, cell-based; conditions: NCI-H446, 48 h
[28] = tested on: SMMC-7721; assay: Cytotoxicity against human SMMC-7721 cells assessed as cell growth inhibition incubated for 48 hrs by CCK8 assay; format: functional, cell-based; conditions: SMMC-7721, 48 h
[29] = tested on: SMMC-7721; assay: Cytotoxicity against human SMMC-7721 cells assessed as cell growth inhibition incubated for 24 hrs by CCK8 assay; format: functional, cell-based; conditions: SMMC-7721, 24 h

Phosphotyrosine-protein phosphatase PTPB, sequence (P96830 whole entry): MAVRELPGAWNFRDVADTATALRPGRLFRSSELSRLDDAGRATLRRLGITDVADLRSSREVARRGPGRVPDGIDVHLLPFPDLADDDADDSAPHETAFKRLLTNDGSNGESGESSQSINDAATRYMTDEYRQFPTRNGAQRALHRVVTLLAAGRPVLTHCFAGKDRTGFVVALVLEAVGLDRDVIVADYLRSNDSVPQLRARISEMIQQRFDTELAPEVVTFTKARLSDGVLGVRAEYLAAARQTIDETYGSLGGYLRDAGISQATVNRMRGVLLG

Which IC50 [1] does the source give for `C[C@@H]1C=CC(=O)[C@@]2(C)CC[C@@H]3[C@@H]4[C@@](C)(CC[C@@]4(C)CO)C[C@@]132` here?
Its IC50 is 0.97 µM.

What about the IC50 [2] of the same compound?
The IC50 was 0.038 µM.

For `CC(C)[C@H]1CC[C@@]2(C)CC[C@]3(CO)CC4=C(C(=O)O)CC[C@H]4[C@]4(C)C[C@@H]4[C@H]3[C@H]12`, which IC50 [3] is on record?
Its IC50 is 18 µM.

What does the source list for `C=C1CC[C@H]2C(C)(C)[C@@H](O)CC[C@]2(C)[C@H]1CC(=O)[C@]1(O)C=C(CSC[C@H](O)C(=O)OC)C(=O)C1`?
IC50 [4]: 4.6 µM; IC50 [5]: 1.8 µM; IC50 [6]: 10 µM; IC50 [7]: 3.2 µM

Which results are given for `C=C(C)[C@H]1[C@H](OC(C)=O)C[C@H](C)[C@@]12CC=C(C)[C@@H](OC(=O)CCCCCCC/C=C\C/C=C\CCCCC)C2`?
MIC [8]: 0.5 mg/L (≈ 0.925 µM); MIC [9]: 0.25 mg/L (≈ 0.462 µM)

With `Cc1cc2c(c(=O)o1)C[C@@H]1[C@@]3(C)[C@H](O)CC(=O)OC(C)(C)[C@@H]3[C@H](O)C[C@@]1(C)O2` as the compound, how does the EC50 [10] read?
The EC50 was 1150 µM.

For `CC1=CC[C@@](O)([C@@]2(C)CCC(=O)O2)C[C@@H]1O`, which IC50 [11] is on record?
The IC50 was 3 mg/L.

What about the IC50 [12] of the same compound?
Its IC50 is 3 mg/L.

What about the IC50 [13] of the same compound?
The IC50 was 3 mg/L.

And the IC50 [14]?
Its IC50 is 3 mg/L.

What about the IC50 [15] of the same compound?
Its IC50 is 3 mg/L.

What does the source list for `CO[C@]12C=C3[C@@H]4O[C@@H]4[C@H](OC(C)=O)[C@H](C)[C@@]3(C)C[C@]13O[C@]3(C)CO2`?
IC50 [16]: 28.3 µM; IC50 [17]: 5.2 µM

What does the source list for `C[C@]12C3=CC(=O)OCC3=C[C@H]3OC(=O)[C@@](C)(C=C[C@H]1O)[C@H]32` [ASPEROLIDE A]?
IC50 [18]: 17.7 µM; fold change (FC) [19]: 2.9

Which inhibition in vivo at 5 mg/kg [20] does the source give for `CO[C@H]1O[C@@]2(OC)C[C@@](C)(O)[C@H]3C[C@@]4(C)CC[C@H]([C@@H](C)/C=C\C=C(C)C)[C@@H]4C/C=C/1[C@H]32` [OPHIOBOLIN O] here?
The inhibition in vivo at 5 mg/kg was 35%.

What about the inhibition in vivo at 20 mg/kg [21] of the same compound?
The inhibition in vivo at 20 mg/kg was 69%.

What about the inhibition in vivo at 10 mg/kg [22] of the same compound?
Its inhibition in vivo at 10 mg/kg is 46%.

And the inhibition in vivo at 5 mg/kg [23]?
The inhibition in vivo at 5 mg/kg was 23%.

What about the inhibition in vivo at 20 mg/kg [24] of the same compound?
Its inhibition in vivo at 20 mg/kg is 73%.

And the inhibition in vivo at 5 mg/kg [25]?
The inhibition in vivo at 5 mg/kg was 71%.

Which IC50 [26] does the source give for `C[C@@]12C3=CC(=O)OCC3=C[C@H]3OC(=O)[C@](C)([C@H]31)[C@@H](O)[C@H]1O[C@H]12` [WENTILACTONE A] here?
The IC50 was 5.56 µM.

What about the IC50 [27] of the same compound?
The IC50 was 1.9 µM.

Which IC50 [28] does the source give for `C[C@@]12C[C@@H](O)C[C@]3(C)C4=CC(=O)OCC4=C[C@@H](OC1=O)[C@@H]23` [WENTILACTONE B] here?
The IC50 was 19 µM.

What about the IC50 [29] of the same compound?
Its IC50 is 31 µM.
